The source of these data is publication PMC12111156, “Nitazoxanide Analogs: Synthesis, In Vitro Giardicidal Activity, and Effects on Giardia lamblia Metabolic Gene Expression” (International Journal of Molecular Sciences, 2025).

Series [1] relates to G. lamblia strain ATCC 30957. Description: Viability of Giardia lamblia trophozoite culture (trypan blue count). Type of series: cell-based. How it is done: Viability analysis was performed on G. lamblia strain ATCC 30957 grown in TYI-S-33 medium supplemented with 10% fetal bovine serum (FBS) and an antibiotic. Pre-culture was performed in 16 × 150 mm borosilicate tubes with a medium inoculated with 2 × 10^5 trophozoites and incubated at 37 °C for 48 h. For the recovery of the trophozoites, the vial was incubated in ice for 8 min and centrifuged for 6 min at 2000 rpm. The concentrated trophozoites were suspended in 1 mL of phosphate-buffered saline (PBS), and the number of trophozoites was counted by placing a 1:1 volume ratio of cell culture and trypan blue dye (4 g/L); then, a homogeneous drop of the mixture was taken and placed in the Neubauer chamber, and the total cells were counted.
The curves were plotted for concentrations of 0–50 µM of each compound. The assay was performed by placing 1.5 × 10^5 cells in 1.5 mL microcentrifuge tubes with a supplemented medium and different concentrations of each compound (0–50 µM). The negative control was performed under the same conditions without a compound, and the drugs NTZ and MTZ were used as positive controls. The samples were incubated for 48 h at 37 °C. At the end of the incubation, the cell viability count was performed using the trypan blue technique. The viability calculation was performed following the formula nv/(nv + nm), where nv represents the live cells and nm represents the dead cells; the viability value obtained was expressed as a percentage. The IC50 value of each compound was determined using the IC50 Calculator software (https://www.aatbio.com/tools/ic50-calculator).

Series [2] has as its system G. lamblia strain resistant to nitazoxanide. Kind of series: Giardicidal activity in nitazoxanide-resistant strain (trypan blue count). Type of series: cell-based. Particulars: Giardia duodenalis, 48 h, read-out: IC50 G. lamblia (NTZ Resistant). The method, then: A pre-culture at confluence was used as a starting point, and a concentration–response curve was plotted using an initial compound concentration of 25 μM in a final volume of 1.5 mL of TYI-S-33 medium, followed by serial dilutions of the compound. Each treatment was inoculated with 1.5 × 10^5 trophozoites and incubated for 48 h at 37 °C. At the end of the incubation, the number of trophozoites was determined using the trypan blue assay and by counting in a Neubauer chamber. The viability percentage at each compound concentration was calculated using the negative control as a reference.

The nature of series [3]: Cytotoxicity, XTT viability assay, HT-29. Conditions: human, HT-29 cells, CC50 HT-29, 48 h, XTT. How it is done:
(§1) The cytotoxicity assay was performed to evaluate the effect of the selected compounds on human cells. Colon cells were used because they are cell lines like those present in the microenvironment where G. lamblia colonizes, which is the small intestine of the host. The assay was performed using the human cell lines Caco-2 (ATCC HTB-37) and HT-29 (ATCC […]). Cell viability was determined using the Cell Proliferation Kit II (XTT, St. Louis, MO, EE. UU.). A cell suspension of 2 × 10^3 cells/mL was prepared in Dulbecco’s modified Eagle’s medium (DMEM) supplemented with 10% inactivated fetal bovine serum and an antibiotic (1% penicillin/streptomycin, 5000 U/mL, in a volume of 100 µL). The suspension was added to a 96-well plate. The plates were incubated for 24 h at 37 °C in a 5% CO2 atmosphere. […] The cells were incubated for 48 h at 37 °C in a 5% CO2 atmosphere. Cell viability was determined using the following steps. The medium in each well was replaced with 100 µL of fresh medium, and 50 µL of XTT labeling mix was added per well. The reaction was incubated for four hours at 37 °C and 5% CO2. After incubation, the absorbance of the samples on the plate was measured at 450 nm. Each compound was assayed in triplicate in three independent experiments. CC50 values (μM) were determined using the nonlinear regression function of GraphPad Prism version 8 for Windows.
A general note: Tetrazolium assays rely on reduction of a dye to a coloured formazan, in cell work by metabolically active cells.

Series [4] has as its system HT-29 cells. Kind of series: Cytotoxicity, XTT viability assay, HT-29. Conditions: for Selectivity index (CC50/IC50) HT-29: CC50 HT-29 / IC50 trophozoite ATCC strain 30957. How it is done: as §1
A short description of series [5]: Cytotoxicity, XTT viability assay, Caco-2. Particulars: human; for selectivity ratio at 48 h: Caco-2. How it is done: as §1
Series [6] concerns Caco-2 cells. Description: Cytotoxicity, XTT viability assay, Caco-2. Conditions: read-out: CC50 Caco-2; 48 h, XTT. How it is done: as §1
Another series deals with Caco-2 and HT-29 cells. Kind of series: Cytotoxicity, XTT viability assay, stated for both cell lines. The series is classed as cell-based, human. Particulars: 125 µM, 48 h. The method, then:
The suspension was added to a 96-well plate. […] Cell viability was determined using the following steps.

Series [7] has as its system Giardia lamblia trophozoites (strain ATCC 30957) gene expression. Kind of series: Gene expression in trophozoites by RT-qPCR. The series is classed as cell-based. Conditions: IC50 of each compound, 48 h. The method, then:
To determine the alterations in the parasite’s metabolism and cellular processes induced by the compounds, the expression levels of various genes encoding metabolic, structural, and oxidative stress response proteins were evaluated. G. lamblia strain ATCC 30957 was grown by following previously established culture parameters.
The culture tube was incubated on ice for 15 min and then centrifuged at 2000 rpm for 6 min to concentrate the cell pellet. Cell counting was performed using the trypan blue method. A 500 µL volume of Trizol ® was added, and it was gently homogenized; then, 60 µL of chloroform was added, and it was homogenized for 10 s with a vortex and incubated on ice for 3 min. Afterward, it was centrifuged at 12,000 rpm for 10 min, the aqueous phase was transferred to a new tube, 200 µL of isopropanol was added, and it was incubated for 3 h on ice. The sample was then centrifuged for 10 min at 12,000 rpm, and the supernatant was discarded. A 600 µL volume of ethanol (70%) was added, homogenized, and centrifuged. In the end, the supernatant was removed, and the sample was centrifuged again to dry the excess alcohol. The pellet was dried. Finally, it was resuspended in 25 µL of sterile MilliQ water. The concentration and purity of the extracted RNA were determined using the NanoDrop® Spectrophotometer ND-1000 (NanoDrop Technologies, Wilmington, DE, USA). […] RNA purity and integrity were confirmed using 0.8% (w/v) agarose gels under denaturing conditions.
The synthesis of cDNA was carried out with […] of purified RNA, and 1 U of […] was added (Thermo Thermo Fisher Scientific, Waltham, MA, USA). First-strand cDNA synthesis was carried out using 1 μg of DNase-treated RNA, combined with a 10 mM dNTP mix, oligo(dT)18 primer, and RevertAid reverse transcriptase (Thermo Scientific) in a final reaction volume of 20 μL. The reaction mixture was incubated at 42 °C for 60 min, followed by heat inactivation at 70 °C for 10 min. The synthesized cDNA was stored at −20 °C until further use. The level of purity and concentration of the cDNA were determined using the NanoDrop® Spectrophotometer ND-1000 (NanoDrop Technologies, Wilmington, DE, USA).
Specific oligonucleotides were designed to determine the expression levels of the gene’s phosphofructokinase, pyruvate kinase, glucose-6-phosphate dehydrogenase::6-phosphogluconolactonase, 6-phosphogluconate dehydrogenase, and transketolase. The design was based on gene sequences available in the National Center for Biotechnology Information (NCBI) database, adhering to the following criteria: an oligonucleotide length of 18–20 bp, a melting temperature (Tm) of 61 °C, a GC content of approximately 40%, and an amplicon size between 80 and 200 bp (Table 4). The oligonucleotides were synthesized by the Sequencing and Synthesis Unit of the Institute of Biotechnology, UNAM.
Additionally, previously reported primers that were used for the gene expression analysis of G. lamblia were also obtained (Table 4). These primers target genes encoding surface structural protein, giardin, actin, pyruvate:ferredoxin oxidoreductase, pyruvate phosphate dikinase, NADH oxidase, triose phosphate isomerase, glyceraldehyde-3-phosphate dehydrogenase, and Aldolase.
Amplification was performed using a StepOne™ Real-Time PCR System and the Fast SYBR® Green Master Mix kit (Applied Biosystems, Foster City, CA, USA) under the following conditions: an initial denaturation at 95 °C for 30 s, followed by 40 cycles of 95 °C for 3 s and 60 °C for 30 s. The melt curve analysis was conducted post-amplification by gradually increasing the temperature from 60 °C to 95 °C. […] Normalization was performed using the geometric mean of cycle threshold (Ct) values, and the relative expression levels of the target genes were calculated using the 2^−ΔΔCt method. Each reaction was performed in five replicates for all analyzed genes and strains. Results are presented as mean values ± standard deviation (SD).
A general note: In qPCR the cycle at which signal appears reflects the starting amount.

Series [8] has as its system G6PD::6PGL enzyme of G. lamblia. Conditions: cited from earlier work.
Series [9] relates to HT-29 cells. Also noted: method as in PMID 38893461. Particulars: cited from earlier work.
For series [10], the system named is Caco-2 cells. Details: method as in PMID 38893461. Conditions: cited from earlier work.
Series [11] concerns Giardia lamblia (giardiasis). Also noted: method as in PMID 11432808, PMID 34378955, PMID 32122530, PMID 37511272. Conditions: cited from earlier work.
Where [12] appears, read: ratio of IC50 values, ATCC strain.

pIC50: −log10 of the molar value. Where two headings read alike, the source gives them in different places.

On to `COc1cccc(C(=O)Nc2ncc([N+](=O)[O-])s2)c1` [FLP-6, 3-Methoxy-N-(5-nitro-1,3-thiazol-2-yl)benzamide], for which the “Decrease of parasite viability” value in [1] (25 µM) is 100%. Also, the “Inhibition of growth of G. lamblia parasite culture” value in series [1] (concentration not given) is “more than 98%”. In series [1] (setting [12]), the “Relative potency compared with MTZ” value stood at 12 times and the “Relative potency compared with NTZ” value is on record as 15 times. In addition, the pIC50 in series [2] was 6.27. In series [3], this compound had a CC50 at 48 h of 115 µM. In addition, in the series on HT-29 cells [4], the “Selectivity index (CC50/IC50) HT-29” value stood at 411. In addition, in the series with HT-29 cells [4] (read-out: CC50 HT-29, 48 h, XTT), the CC50 came to 115 µM. The selectivity ratio at 48 h in series [5] was determined as 636. This compound also came in with a CC50 at 48 h in series [5] (Caco-2, CC50 Caco-2, 48 h, XTT) of 178 µM. Moreover, in the series with Caco-2 cells [6], the CC50 is 178 µM. For the same compound, the “Decrease of cell viability” value with Caco-2 and HT-29 cells is “up to 30%”. For the same compound, in series [7], the “ACT (actin) gene expression, increase vs control” value is given as 2.5 times; the “G6PD::6PGL gene expression vs control” value stood at 35 fold change; the “GIA (giardin) gene expression, increase vs control” value was determined as 2.6 times; the “PFK gene expression vs control” value was determined as 2.3 fold change. In addition, in series [7], the “TKT gene expression, decrease vs control” value turned out to be 1.2 times and the “VSP gene expression, increase vs control” value is listed as 5.9 times. Further, the “Inhibition of the G6PD::6PGL enzyme (in words)” value in series [8] is listed as “not inhibitors of the enzyme”.

`CC(=O)Oc1ccccc1C(=O)Nc1ncc([N+](=O)[O-])s1` [NTZ, nitazoxanide]: the negative logarithm of the IC50 (pIC50) in [1] (Giardia duodenalis, ATCC30957, 48 h, read-out: IC50 G. lamblia, trophozoites ATCC 30957, 48 h, 37 °C) was 5.47. Further, the pIC50 in [1] (read-out: IC50 G. lamblia, trophozoites ATCC 30957, 48 h, 37 °C) was 5.37. Further, the pIC50 in series [2] is 5.14. The “Selectivity index (CC50/IC50) HT-29” value in the series with HT-29 cells [4] worked out at 147. For the same compound, the selectivity ratio at 48 h in [5] stood at 134. For the same compound, in series [7], the “6PGDH gene expression vs control” value is on record as “differential overexpression”; the “G6PD::6PGL gene expression vs control” value amounted to 48.3 fold change; the “GAPDH gene expression vs control” value is given as 17.2 fold change; the “GIA (giardin) gene expression, increase vs control” value is reported as “did not show changes in expression”. For the same compound, in series [7], the “NADHox gene expression, increase vs control” value is “lower”; the “PFK gene expression vs control” value is “reduction”; the “PFOR gene expression vs control” value came to 14 fold change; the “TKT gene expression, increase vs control” value stood at 36.1 times. In the series on HT-29 cells [9], the CC50 was 634 µM. Moreover, the half-maximal cytotoxic concentration (CC50) with Caco-2 cells [10] is 580 µM. In addition, the “Inhibition of GlG6PD::6PGL (in words)” value in series [8] is on record as “catalytic inhibitor”. Besides, the “Efficacy in treatment of giardiasis” value in [11] was 71%.

By pIC50 is commonly meant the negative decadic logarithm of the IC50, by convention in mol/L. The CC50 is the concentration that lowers cell viability or growth by half.
